Experimental data from patent US5756478A, “Method for reducing toxicity of D-nucleoside analogs with L-nucleosides” (priority 1996, dated 1998).
Values joined by “and” are separate entries in the source; they are usually repeats but may differ in a detail not shown here. Equal entries are not always repeated. “Also recorded” adds a separate entry of the source. Where two headings read alike, the source gives them in different places.

Legend:
HIV-1IIIB [1] = test: Anti-HIV activity: protection of MT-2 cells infected with HIV-1IIIB (MTT-dye reduction); format: cell-based; settings: Human immunodeficiency virus 1, MT2, 120 h, MT-2 cells, HIV-1IIIB, MOI 0.1 TCID50 per cell, 5 days, read-out: ID50 (the source's name)
Experimental: (§1) The following anti-HIV drugs were tested in combination with the L-nucleosides β-L-5-fluoro-2',b 3'-dideoxycytidine [β-L-FddC or L(-)FddC], β-L-5-fluoro-2',3'-dideoxy-2',3'-didehydrocytidine [β-L-Fd4C or L(-)Fd4C], β-L-5-fluoro-2',3'-dideoxy-3'-thiacytidine [L(-)FTC] and β-L-2',3'-dideoxy-3'-thiacytidine [L(-)SddC or 3TC]: 3'-azido-3'deoxythymidine (AZT) as well as the β-D-2',3'-dideoxynucleosides, for example, β-D-2',3'-dideoxycytidine (ddC), β-D-2',3'-dideoxyadenosine, β-D-2',3'-dideoxyinosine (DDI) and β-D-2',3'-didehydro-3'-deoxy-thymidine (D4T). β-L-FddC and β-L-Fd4C was obtained following the method of Lin, et al., J. Med. Chem., 37, no. 6 (1994). L(-)FTC and L(-)SddC were prepared by standard literature procedures. See, for example, Jeong, et al. J. Med. Chem., 36, 181 (1993). AZT was obtained from Sigma Chemical Co., St. Louis, Mo., USA. ddC was obtained from Aldrich Chemical Co., Milwaukke, Wis. USA. DDI and D4T were obtained from Bristol-Myers Co., Wallingford, Conn., USA.
(§2) The above-mentioned drugs were tested using MT-2 cells infected with HIV-1IIIB as described by JW Mellers, et al., Molecular Pharm. 41, 446-451 (1991) with some modification. Briefly, triplicate wells of 96-well plates containing 1×10^4 MT-2 cells were infected with HIV-1IIIB at a multiplicity of infection (MOI) of 0.1 TCID50 per cell (TCID50 - 50% tissue culture infective dose). Serial dilutions of drug were added immediately after infection. Cell viability was quantitated 5 days after infection by the MTT-dye reduction model (Larder, et al. Antimicrob. Agents Chemother. 34, 436-441, 1990). The percentage of protection was calculated with the formula [(a-b/c-b)×100], in which a=the A595 of drug-treated, virus-infected well, b=A595 of no-drug infected wells, and c=A595 of no-drug, uninfected wells.

[2] = system: Mitochondrial DNA (mtDNA); test: Mitochondrial DNA (mtDNA) content of CEM cells (slot blot); format: cell-based, Human; settings: with AZT, ddC, DDI or D4T
Experimental: To determine the effect of nucleoside analogues on mtDNA content, CEM cells were treated with various concentrations of drug 8 days with medium and drug changes every 2 days. Cells (1×10^5)are washed twice with phosphate buffered […] (PBS) and resuspended in 25 mM Tris (pH 8.0) and 1 mM EDTA. The cells are lysed by 5 cycles of freeze/thaw. RNAase A (DNase free, final concentration of 0.1 mg/ml) is added to the cel ysate and incubated for 3 hours at 50° C. The lysate is brought to a final concentration of 10×SSC, boiled for 10 min., and applied to a nylon membrane presoaked in 2X SSC using a slot blot apparatus. […] All blots are normalized for loading using an Alu probe (ATCC). Blots are exposed to X-ray film and quantitated using a Molecular Dynamics Personal Densitometer SI.

[3] = system: CEM, a Human T-type lymphoblast tumor cell line; test: Cell growth inhibition of CEM cells by D-nucleosides with or without L-nucleosides; format: cell-based
From the text: CEM, a Human T-type lymphoblast tumor cell line was used for this study. […] At the end of four days after the addition of the drug, the cell number was estimated by hemocytometer. […] The data, presented below in Table 1-3, are normalized against the control. The parenthetical values represent the expected effect the combined agents should have on cell growth.

HIV-1IIIB [4] = test: Anti-HIV combination of D- and L-nucleosides in HIV-1IIIB infected MT-2 cells (isobolograms); format: cell-based; settings: for Effect of L-nucleoside on ID50 of co-administered D-nucleoside: with AZT, D4T, ddC or DDI
Experimental: as §1, §2
Isobolograms (FIGS. 1-2) were plotted as the percent change in the ID50 of β-L-FddC (L(-)FddC), L(-)FTC, L(-)SddC (FIGS. 1 and 2) β-L-Fd4C (L(-)Fd4C) at various concentrations in combination with AZT, D4T, ddC or DDI at varying concentations on the x-axis and vice versa on the y-axis. Isobolograms (FIG. 3) were plotted as the percent change in the ID50 of β-L-Fd4C (L(-)Fd4C) at various concentrations in combination with AZT or D4T at varying concentrations on the x-axis and vice-versa on the y-axis.

[5] = Homo sapiens, CCRF-CEM, 96 h, single agent, 1.0 uM, day 4, read-out: Day 4 Cell Growth - % of Control
[6] = Homo sapiens, CCRF-CEM, 96 h, single agent, 0.1 uM, day 4, read-out: Day 4 Cell Growth - % of Control

Nc1nc(=O)n(C2CCC(CO)O2)cc1F (single isomer, unassigned) [β-L-FddC, β-L-5-fluoro-2',3'-dideoxycytidine]
IC50 (HIV-1IIIB [1]): 0.45 µM | Effect of L-nucleoside on D-nucleoside inhibition of mitochondrial DNA synthesis [2]: could prevent the effect of AZT, ddC, DDI or D4T in inhibiting the synthesis of mitochondrial DNA synthesis; also recorded: appears to inhibit the ability of the co-administered D-nucleoside to inhibit the synthesis of mitochondrial DNA | activity at 1 µM [3, 5]: 84% | Effect of L-nucleoside on ID50 of co-administered D-nucleoside (HIV-1IIIB [4]): reduces the ID50 value of AZT, ddC, DDI and D4T; also recorded: decreases the ID50 of a co-administered D-nucleoside and vice versa

Nc1nc(=O)n([C@@H]2CS[C@H](CO)O2)cc1F [L(-)FTC, β-L-5-fluoro-2',3'-dideoxy-3'-thiacytidine]
IC50 (HIV-1IIIB [1]; unit inferred): 0.6 µM | Effect of L-nucleoside on D-nucleoside inhibition of mitochondrial DNA synthesis [2]: could prevent the effect of AZT, ddC, DDI or D4T in inhibiting the synthesis of mitochondrial DNA synthesis | activity at 0.1 µM [3, 6]: 104% | activity at 1 µM [3, 5]: 87% | activity at 10 µM ([3]; Homo sapiens, CCRF-CEM, 96 h, single agent, 10 uM, day 4, read-out: Day 4 Cell Growth - % of Control): 76% | Day 4 Cell Growth - % of Control ([3]; single agent, 1.0 uM, listed as (-) FTC, 5760 min): 84 % of Control | Day 4 Cell Growth - % of Control ([3]; single agent, 1.0 uM, listed as FTC, 5760 min): 87 % of Control | Effect of L-nucleoside on ID50 of co-administered D-nucleoside (HIV-1IIIB [4]): reduces the ID50 value of AZT, ddC, DDI and D4T; also recorded: decreases the ID50 of a co-administered D-nucleoside and vice versa

Nc1ccn(C2CCC(CO)O2)c(=O)n1 [ddC, β-D-2',3'-dideoxycytidine]
IC50 (HIV-1IIIB [1]): 0.6 µM | Day 4 Cell Growth - % of Control ([3]; 0.01 uM, in combination with 1 uM 3TC): 86 % of Control | Day 4 Cell Growth - % of Control ([3]; 0.01 uM, in combination with 1 uM (-) FTC): 91 % of Control | Day 4 Cell Growth - % of Control ([3]; 0.01 uM, in combination with 1 uM β-L-FddC): 88 % of Control | Day 4 Cell Growth - % of Control ([3]; 0.1 uM, in combination with 1 uM 3TC): 83 % of Control | Day 4 Cell Growth - % of Control ([3]; 0.1 uM, in combination with 1 uM (-) FTC): 87 % of Control | Day 4 Cell Growth - % of Control ([3]; 0.1 uM, in combination with 1 uM β-L-FddC): 84 % of Control | Day 4 Cell Growth - % of Control ([3]; 1.0 uM, in combination with 1 uM 3TC): 67 % of Control | Day 4 Cell Growth - % of Control ([3]; 1.0 uM, in combination with 1 uM (-) FTC): 69 % of Control | Day 4 Cell Growth - % of Control ([3]; 1.0 uM, in combination with 1 uM β-L-FddC): 76 % of Control | activity at 0.01 µM ([3]; Homo sapiens, CCRF-CEM, 96 h, single agent, 0.01 uM, day 4, read-out: Day 4 Cell Growth - % of Control): 92% | activity at 0.1 µM [3, 6]: 80% | activity at 1 µM [3, 5]: 70% | Day 4 Cell Growth - % of Control, expected effect of the combined agents (parenthetical) ([3]; 0.01 uM with 1 uM β-L-FddC): 78 % of Control | Day 4 Cell Growth - % of Control, expected effect of the combined agents (parenthetical) ([3]; 0.1 uM with 1 uM β-L-FddC): 78 % of Control | Day 4 Cell Growth - % of Control, expected effect of the combined agents (parenthetical) ([3]; 1.0 uM with 1 uM β-L-FddC): 66 % of Control | Day 4 Cell Growth - % of Control ([3]; single agent, 0.01 uM, 5760 min): 89 % of Control and 93 % of Control | Day 4 Cell Growth - % of Control ([3]; single agent, 0.1 uM, 5760 min): 83 % of Control and 93 % of Control | Day 4 Cell Growth - % of Control ([3]; single agent, 1.0 uM, 5760 min): 65 % of Control and 79 % of Control | Nature of the anti-HIV combination effect with L-nucleosides (ID50) (HIV-1IIIB [4]; D-nucleoside co-administered with β-L-FddC, L(-)FTC, L(-)SddC or β-L-Fd4C): additively; also recorded: additive
